Assay results reported in patent US20260042764A1, “COMPOSITIONS AND METHODS FOR INHIBITION OF KRAS” (TheRas, Inc., priority 2022, published 2026).

These molecules were tested against T1, Avi-KRAS G12D (1-169) GppNHp/RAF1 RBD-3xFLAG (52-151) (Homo sapiens, UniProt P01116, G12D) (assay: Raf1-KRAS G12D-GppNHP disruption HTRF assay (Biological Example 1)). Settings: KRAS G12D, GppNHp-loaded; class symbols.
T1 construct: Avi-KRAS G12D (1-169)
Assay type: binding
How it was run: (§1)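 Measured with a KRAS/RAF1 HTRF assay at pH 7.5 in 10% DMSO, with two 1 h room-temperature incubations with shaking.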

T1 sequence (P01116 1-169 isoform P01116-2 G12D): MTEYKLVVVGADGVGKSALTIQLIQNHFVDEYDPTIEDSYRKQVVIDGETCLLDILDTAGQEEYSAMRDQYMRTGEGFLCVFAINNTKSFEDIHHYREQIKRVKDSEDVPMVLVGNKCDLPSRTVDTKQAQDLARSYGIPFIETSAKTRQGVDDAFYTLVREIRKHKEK

SMILES | IC50 [nM]
CCN(c1nc(OC[C@@]23CCCN2C[C@H](F)C3)nc2c(F)c(-c3ccc(F)c4sc(N)c(C#N)c34)c(C(F)(F)F)cc12)[C@H]1CCN(C(=O)N2CC3CC(C2)O3)C1 [Compound 651] | < 100

Same assay, conditions: KRAS G12D-GppNHp/RAF1 RBD HTRF

SMILES | IC50 [nM]
[2H]C1([2H])CN2C[C@H](F)C[C@]2(COc2nc(N(C)[C@@H]3CCN(C(=O)C4CC4)[C@@H]3C)c3cc(C(F)(F)F)c(-c4ccc(F)c5sc(N)c(C#N)c45)c(F)c3n2)C1 [Compound 522] | 100 to 1000
CCN(c1nc(OC[C@@]23CCCN2C[C@H](F)C3)nc2c(F)c(-c3ccc(F)c4sc(N)c(C#N)c34)c(C(F)(F)F)cc12)[C@H]1CC(=O)N(C(C)C)C1 [Compound 528] | 1000 to 10000
N#Cc1c(N)sc2c(F)ccc(-c3c(C(F)(F)F)cc4c(N5CC6OCC5C6F)nc(OC[C@@]56CCCN5C[C@H](F)C6)nc4c3F)c12 (stereo partly drawn) [Compound 531] | 100 to 1000
N#Cc1c(N)sc2c(F)ccc(-c3c(C(F)(F)F)cc4c(N5C[C@@H]6[C@H]5CCN6C(=O)C5CC5)nc(OC[C@@]56CCCN5C[C@H](F)C6)nc4c3F)c12 [Compound 535] | 1000 to 10000
CC(C)C(=O)N1CC[C@@H]2[C@H]1CN2c1nc(OC[C@@]23CCCN2C[C@H](F)C3)nc2c(F)c(-c3ccc(F)c4sc(N)c(C#N)c34)c(C(F)(F)F)cc12 [Compound 536] | 1000 to 10000

What follows are molecules tested against T2, Avi-KRAS G12V (1-169) GppNHp/RAF1 RBD-3xFLAG (52-151) (Homo sapiens, UniProt P01116, G12V) (assay: Raf1-KRAS G12V-GppNHP disruption HTRF assay (Biological Example 1)). Settings: KRAS G12V, GppNHp-loaded; class symbols.
T2 construct: Avi-KRAS G12V (1-169)
T2 sequence (P01116 1-169 isoform P01116-2 G12V): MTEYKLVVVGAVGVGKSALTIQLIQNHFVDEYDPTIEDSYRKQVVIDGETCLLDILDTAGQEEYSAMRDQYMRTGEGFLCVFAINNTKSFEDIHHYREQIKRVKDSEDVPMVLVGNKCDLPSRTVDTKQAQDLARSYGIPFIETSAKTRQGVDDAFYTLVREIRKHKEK
Assay type: binding
How it was run: as §1

SMILES | IC50 [nM]
CCN(c1nc(OC[C@@]23CCCN2C[C@H](F)C3)nc2c(F)c(-c3ccc(F)c4sc(N)c(C#N)c34)c(C(F)(F)F)cc12)[C@H]1CCN(C(=O)N2CC3CC(C2)O3)C1 [Compound 651] | < 100

Same assay, conditions: KRAS G12V-GppNHp/RAF1 RBD HTRF

SMILES | IC50 [nM]
[2H]C1([2H])CN2C[C@H](F)C[C@]2(COc2nc(N(C)[C@@H]3CCN(C(=O)C4CC4)[C@@H]3C)c3cc(C(F)(F)F)c(-c4ccc(F)c5sc(N)c(C#N)c45)c(F)c3n2)C1 [Compound 522] | 100 to 1000
CCN(c1nc(OC[C@@]23CCCN2C[C@H](F)C3)nc2c(F)c(-c3ccc(F)c4sc(N)c(C#N)c34)c(C(F)(F)F)cc12)[C@H]1CC(=O)N(C(C)C)C1 [Compound 528] | 1000 to 10000
N#Cc1c(N)sc2c(F)ccc(-c3c(C(F)(F)F)cc4c(N5CC6OCC5C6F)nc(OC[C@@]56CCCN5C[C@H](F)C6)nc4c3F)c12 (stereo partly drawn) [Compound 531] | 100 to 1000
N#Cc1c(N)sc2c(F)ccc(-c3c(C(F)(F)F)cc4c(N5C[C@@H]6[C@H]5CCN6C(=O)C5CC5)nc(OC[C@@]56CCCN5C[C@H](F)C6)nc4c3F)c12 [Compound 535] | 1000 to 10000
CC(C)C(=O)N1CC[C@@H]2[C@H]1CN2c1nc(OC[C@@]23CCCN2C[C@H](F)C3)nc2c(F)c(-c3ccc(F)c4sc(N)c(C#N)c34)c(C(F)(F)F)cc12 [Compound 536] | 1000 to 10000

These molecules were tested against T3, Avi-KRAS G12R (1-169) GppNHp/RAF1 RBD-3xFLAG (52-151) (Homo sapiens, UniProt P01116, G12R) (assay: Raf1-KRAS G12R-GppNHP disruption HTRF assay (Biological Example 1)). Settings: KRAS G12R, GppNHp-loaded; class symbols.
T3 construct: Avi-KRAS G12R (1-169)
T3 sequence (P01116 1-169 isoform P01116-2 G12R): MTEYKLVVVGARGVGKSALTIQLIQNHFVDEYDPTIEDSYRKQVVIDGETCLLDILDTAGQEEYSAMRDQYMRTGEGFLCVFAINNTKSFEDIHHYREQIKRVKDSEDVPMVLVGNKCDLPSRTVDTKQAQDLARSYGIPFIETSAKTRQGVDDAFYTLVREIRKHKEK
Assay type: binding
How it was run: as §1

SMILES | IC50 [nM]
CCN(c1nc(OC[C@@]23CCCN2C[C@H](F)C3)nc2c(F)c(-c3ccc(F)c4sc(N)c(C#N)c34)c(C(F)(F)F)cc12)[C@H]1CCN(C(=O)N2CC3CC(C2)O3)C1 [Compound 651] | < 100

Same assay, conditions: KRAS G12R-GppNHp/RAF1 RBD HTRF

SMILES | IC50 [nM]
[2H]C1([2H])CN2C[C@H](F)C[C@]2(COc2nc(N(C)[C@@H]3CCN(C(=O)C4CC4)[C@@H]3C)c3cc(C(F)(F)F)c(-c4ccc(F)c5sc(N)c(C#N)c45)c(F)c3n2)C1 [Compound 522] | < 100
CCN(c1nc(OC[C@@]23CCCN2C[C@H](F)C3)nc2c(F)c(-c3ccc(F)c4sc(N)c(C#N)c34)c(C(F)(F)F)cc12)[C@H]1CC(=O)N(C(C)C)C1 [Compound 528] | 1000 to 10000
N#Cc1c(N)sc2c(F)ccc(-c3c(C(F)(F)F)cc4c(N5CC6OCC5C6F)nc(OC[C@@]56CCCN5C[C@H](F)C6)nc4c3F)c12 (stereo partly drawn) [Compound 531] | 100 to 1000
N#Cc1c(N)sc2c(F)ccc(-c3c(C(F)(F)F)cc4c(N5C[C@@H]6[C@H]5CCN6C(=O)C5CC5)nc(OC[C@@]56CCCN5C[C@H](F)C6)nc4c3F)c12 [Compound 535] | 1000 to 10000
CC(C)C(=O)N1CC[C@@H]2[C@H]1CN2c1nc(OC[C@@]23CCCN2C[C@H](F)C3)nc2c(F)c(-c3ccc(F)c4sc(N)c(C#N)c34)c(C(F)(F)F)cc12 [Compound 536] | 1000 to 10000

What follows are molecules tested on SW620 cells (KRAS G12V) (assay: Cell-based pERK HTRF assay in SW620 cell (Biological Example 4)). Settings: Homo sapiens, SW-620, SW620 (KRAS G12V) cells, pERK HTRF.
How it was run: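 SW620 cells were treated for 4 h with compound in a 9-point half-log series from 1 μM top (0.25% DMSO), then lysed. Phospho-ERK was detected by HTRF with d2 and Eu cryptate antibodies after 4–24 h at room temperature, read at 615 nm emission.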

SMILES | IC50 [nM]
[2H]C1([2H])CN2C[C@H](F)C[C@]2(COc2nc(N(C)[C@@H]3CCN(C(=O)C4CC4)[C@@H]3C)c3cc(C(F)(F)F)c(-c4ccc(F)c5sc(N)c(C#N)c45)c(F)c3n2)C1 [Compound 522] | < 100
CCN(c1nc(OC[C@@]23CCCN2C[C@H](F)C3)nc2c(F)c(-c3ccc(F)c4sc(N)c(C#N)c34)c(C(F)(F)F)cc12)[C@H]1CC(=O)N(C(C)C)C1 [Compound 528] | 100 to 1000
N#Cc1c(N)sc2c(F)ccc(-c3c(C(F)(F)F)cc4c(N5CC6OCC5C6F)nc(OC[C@@]56CCCN5C[C@H](F)C6)nc4c3F)c12 (stereo partly drawn) [Compound 531] | < 100
N#Cc1c(N)sc2c(F)ccc(-c3c(C(F)(F)F)cc4c(N5C[C@@H]6[C@H]5CCN6C(=O)C5CC5)nc(OC[C@@]56CCCN5C[C@H](F)C6)nc4c3F)c12 [Compound 535] | < 100
CC(C)C(=O)N1CC[C@@H]2[C@H]1CN2c1nc(OC[C@@]23CCCN2C[C@H](F)C3)nc2c(F)c(-c3ccc(F)c4sc(N)c(C#N)c34)c(C(F)(F)F)cc12 [Compound 536] | < 100

Same assay, conditions: Homo sapiens, SW-620, SW620 (KRAS G12V) cells, pERK HTRF; class symbols

SMILES | IC50 [nM]
CCN(c1nc(OC[C@@]23CCCN2C[C@H](F)C3)nc2c(F)c(-c3ccc(F)c4sc(N)c(C#N)c34)c(C(F)(F)F)cc12)[C@H]1CCN(C(=O)N2CC3CC(C2)O3)C1 [Compound 651] | < 100

What follows are molecules tested against T4, Avi-KRAS WT (1-169) GppNHp/RAF1 RBD-3xFLAG (52-151) (Homo sapiens, UniProt P01116) (assay: Raf1-KRAS WT-GppNHP disruption HTRF assay (Biological Example 1)). Settings: KRAS WT, GppNHp-loaded; class symbols.
T4 construct: Avi-KRAS WT (1-169)
T4 sequence (P01116 1-169 isoform P01116-2): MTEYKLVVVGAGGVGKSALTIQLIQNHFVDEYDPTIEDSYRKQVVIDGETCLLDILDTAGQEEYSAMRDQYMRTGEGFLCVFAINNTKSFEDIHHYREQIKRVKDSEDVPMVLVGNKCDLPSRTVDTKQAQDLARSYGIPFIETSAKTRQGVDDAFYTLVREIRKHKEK
Assay type: binding
How it was run: as §1

SMILES | IC50 [nM]
CCN(c1nc(OC[C@@]23CCCN2C[C@H](F)C3)nc2c(F)c(-c3ccc(F)c4sc(N)c(C#N)c34)c(C(F)(F)F)cc12)[C@H]1CCN(C(=O)N2CC3CC(C2)O3)C1 [Compound 651] | < 100

Same assay, conditions: KRAS WT-GppNHp/RAF1 RBD HTRF

SMILES | IC50 [nM]
[2H]C1([2H])CN2C[C@H](F)C[C@]2(COc2nc(N(C)[C@@H]3CCN(C(=O)C4CC4)[C@@H]3C)c3cc(C(F)(F)F)c(-c4ccc(F)c5sc(N)c(C#N)c45)c(F)c3n2)C1 [Compound 522] | < 100
CCN(c1nc(OC[C@@]23CCCN2C[C@H](F)C3)nc2c(F)c(-c3ccc(F)c4sc(N)c(C#N)c34)c(C(F)(F)F)cc12)[C@H]1CC(=O)N(C(C)C)C1 [Compound 528] | 1000 to 10000
N#Cc1c(N)sc2c(F)ccc(-c3c(C(F)(F)F)cc4c(N5CC6OCC5C6F)nc(OC[C@@]56CCCN5C[C@H](F)C6)nc4c3F)c12 (stereo partly drawn) [Compound 531] | 100 to 1000
N#Cc1c(N)sc2c(F)ccc(-c3c(C(F)(F)F)cc4c(N5C[C@@H]6[C@H]5CCN6C(=O)C5CC5)nc(OC[C@@]56CCCN5C[C@H](F)C6)nc4c3F)c12 [Compound 535] | 1000 to 10000
CC(C)C(=O)N1CC[C@@H]2[C@H]1CN2c1nc(OC[C@@]23CCCN2C[C@H](F)C3)nc2c(F)c(-c3ccc(F)c4sc(N)c(C#N)c34)c(C(F)(F)F)cc12 [Compound 536] | 1000 to 10000

These molecules were tested on GP2d cells (KRAS G12D) (assay: Cell-based pERK HTRF assay in GP2d cell (Biological Example 2)). Settings: GP2d, GP2d (KRAS G12D) cells, pERK HTRF.
How it was run: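 Cells grown in DMEM with 10% FBS were exposed to compound for 60 min at 0.25% DMSO, using a 9-point half-log series starting at 1 μM or 100 nM. Lysates were then mixed with d2 and Eu cryptate antibodies for 4–24 h at room temperature, and pERK was read by HTRF.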

SMILES | IC50 [nM]
[2H]C1([2H])CN2C[C@H](F)C[C@]2(COc2nc(N(C)[C@@H]3CCN(C(=O)C4CC4)[C@@H]3C)c3cc(C(F)(F)F)c(-c4ccc(F)c5sc(N)c(C#N)c45)c(F)c3n2)C1 [Compound 522] | < 100
CCN(c1nc(OC[C@@]23CCCN2C[C@H](F)C3)nc2c(F)c(-c3ccc(F)c4sc(N)c(C#N)c34)c(C(F)(F)F)cc12)[C@H]1CC(=O)N(C(C)C)C1 [Compound 528] | < 100
N#Cc1c(N)sc2c(F)ccc(-c3c(C(F)(F)F)cc4c(N5CC6OCC5C6F)nc(OC[C@@]56CCCN5C[C@H](F)C6)nc4c3F)c12 (stereo partly drawn) [Compound 531] | < 100
N#Cc1c(N)sc2c(F)ccc(-c3c(C(F)(F)F)cc4c(N5C[C@@H]6[C@H]5CCN6C(=O)C5CC5)nc(OC[C@@]56CCCN5C[C@H](F)C6)nc4c3F)c12 [Compound 535] | < 100
CC(C)C(=O)N1CC[C@@H]2[C@H]1CN2c1nc(OC[C@@]23CCCN2C[C@H](F)C3)nc2c(F)c(-c3ccc(F)c4sc(N)c(C#N)c34)c(C(F)(F)F)cc12 [Compound 536] | < 100

Same assay, conditions: GP2d, GP2d (KRAS G12D) cells, pERK HTRF; class symbols

SMILES | IC50 [nM]
CCN(c1nc(OC[C@@]23CCCN2C[C@H](F)C3)nc2c(F)c(-c3ccc(F)c4sc(N)c(C#N)c34)c(C(F)(F)F)cc12)[C@H]1CCN(C(=O)N2CC3CC(C2)O3)C1 [Compound 651] | < 100
